# From US5773239A, “Mannosidase inhibitors, process for their preparation and their use as therapeutic agents” (Mount Sinai Hospital Corporation., priority 1995, dated 1998)
# Target: lysosomal mannosidase
# Test: Lysosomal mannosidase assay (pH 5.0)
# Format: biochemical
# Conditions: para-nitrophenyl α-mannose
# Experimental: The assay for rat liver Golgi α-mannosidase II contained 5 mM para-nitrophenylα-mannose, 40 mM sodium acetate pH 5.6, plus serially diluted test compouunds and mannosidase enzyme in a total volume of 50 ul, in 96 well plates. Plates were incubated 45 min at 37° C., then the reaction was stopped with 50 μl of 0.5M sodium carbonate. The absorbance of reaction products was read at 405 nm. The lysosomal mannosidase was done in the same procedure but with 40 mM sodium acetate buffer pH 5.0. The numbers in the table are IC50 values in μM for inhibition of mannosidase activity.
structure (smiles),measurement,value
"O[C@H]1[C@H]2[C@H](O)CCCN2C[C@H]1O [SW, Swainsonine, reference compound]",IC50,82 nM
